Assay results published in ChEMBL document CHEMBL5634204, “Goondansamycins A-H: Benzenoid Ansamycins from an Australian Volcanic Crater Soil-Derived Actinomadura sp. S4S-00069B08” (J Nat Prod, 2024).
pIC50: −log10 of the molar value.

What was measured:
Staphylococcus aureus = test: Antibacterial activity against Staphylococcus aureus ATCC 25923 assessed as inhibition of bacterial growth incubated for 24 hrs by spectrophotometry; format: functional, organism-based; details: ATCC 25923, 24 h
Candida albicans = test: Antifungal activity against Candida albicans ATCC 10231 assessed as inhibition of fungal growth incubated for 48 hrs by spectrophotometry; format: functional, organism-based; details: ATCC 10231, 48 h
NCI-H460 = test: Cytotoxicity against human NCI-H460 cells assessed as inhibition of cell growth incubated for 48 hrs by MTT assay; format: functional, cell-based; details: NCI-H460, 48 h
SW-620 = test: Cytotoxicity against human SW620 cells assessed as inhibition of cell growth incubated for 48 hrs by MTT assay; format: functional, cell-based; details: SW-620, 48 h
Escherichia coli = test: Antibacterial activity against Escherichia coli ATCC 11775 assessed as inhibition of bacterial growth incubated for 24 hrs by spectrophotometry; format: functional, organism-based; details: ATCC 11775, 24 h

Measured: pIC50

C/C1=C\C(C)C(O)c2cc(O)cc3c2OC(C)(C(=O)N3)C(=O)C(C)C1 (stereo not given)
< 4.52: all assays above

CCC(=O)[C@@H](C)C/C(C)=C/[C@@H](C)[C@H](O[C@@H]1CC[C@@H](O)[C@@H](C)O1)C1=CC(=O)C=C(N)C1=O
< 4.52: all assays above

C/C1=C\[C@@H](C)[C@H](O[C@@H]2CC[C@H](O)[C@@H](C)O2)c2cc(O)cc3c2O[C@](C)(C(=O)N3)C(=O)[C@@H](C)C1
< 4.52: all assays above

C/C1=C\[C@@H](C)[C@H](O[C@@H]2CC[C@@H](O)[C@@H](C)O2)c2cc(O)cc3c2O[C@](C)(C(=O)N3)C(=O)[C@@H](C)C1
< 4.52: all assays above

C/C1=C\[C@@H](C)[C@H](O)c2cc(O)cc3c2O[C@](C)(C(=O)N3)C(=O)[C@H](C)C1
< 4.52: all assays above

C/C1=C\[C@@H](C)[C@H](O)c2cc(O)cc3c2O[C@](C)(C(=O)N3)C(=O)[C@@H](C)C1
< 4.52: all assays above

C/C1=C\C(C)C(O)c2cc(O)cc3c2OC(CO)(C(=O)N3)C(=O)C(C)C1 (stereo not given)
< 4.52: all assays above

C/C1=C\[C@@H](C)[C@H](O[C@@H]2CC[C@@H](O)[C@@H](C)O2)C2=CC(=O)C(N)=C(NC(=O)C(C)C(=O)[C@@H](C)C1)C2=O (stereo not given in full)
< 4.52: all assays above

C/C1=C\[C@@H](C)[C@H](O)c2cc(O)cc(c2O)NC(=O)[C@@H](C)C(=O)[C@@H](C)C1
< 4.52: all assays above

C/C1=C\[C@@H](C)[C@H](O)C2=CC(=O)C(N)=C(NC(=O)C(C)C(=O)[C@@H](C)C1)C2=O (stereo not given in full)
< 4.52: all assays above
